In patent US9896441B2 (Lycera Corporation, priority 2014, dated 2018):

Columns and labels:
[1] = molecular target: T1, Gal4-RORγ-LBD (Homo sapiens, UniProt P51449); test: Gal4-RORγ Luciferase Reporter Assay in HEK-293T Cells; format: cell-based; conditions: HEK-293 cells; for Gal4-RORγ Assay Max Response: maximum response
T1 construct: expressed in transfected cells
T1 sequence (P51449 269-508 limits assumed): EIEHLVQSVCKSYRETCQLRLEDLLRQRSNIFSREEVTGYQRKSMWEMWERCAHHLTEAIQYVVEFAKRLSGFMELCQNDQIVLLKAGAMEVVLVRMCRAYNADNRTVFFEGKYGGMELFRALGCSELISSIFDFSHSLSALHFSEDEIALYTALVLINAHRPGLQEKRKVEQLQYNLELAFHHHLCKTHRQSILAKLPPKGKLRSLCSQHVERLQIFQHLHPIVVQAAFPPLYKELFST
Summary of the method: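 HEK-293 cells were co-transfected with Gal4-RORγ-LBD and a Gal4-luciferase reporter, then exposed overnight at 37 °C to compounds with […] ursolic acid present (0.2% DMSO). Luminescence was read with One-Glo after 10 min at RT, untreated signal was set as 100, and Max Response was taken as the upper plateau of a 4-parameter logistic fit.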

[2] = molecular target: T2, RORγ-LBD (Homo sapiens, UniProt P51449); test: RORγ-Ligand Binding Domain (LBD) TR-FRET Assay; format: biochemical; conditions: for TR-FRET Assay Max Response: maximum response;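 for TR-FRET Assay Max Response: 665/615 nm signal ratio set to 100 without ursolic acid or test compound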
T2 construct: made in house; host or cells: SF9 cells (baculovirus); used as diluted lysate
T2 sequence (P51449 269-508 limits assumed): T1 sequence (P51449 269-508 limits assumed)
Summary of the method: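 His-tagged RORγ-LBD from SF9 baculovirus lysate, ~3 nM final, in 50 mM Tris pH 7.0, 50 mM KCl, 1 mM EDTA, 0.1 mM DTT, 0.01% BSA. Biotinylated SRC1 LXXLL peptide at 200 nM final with 2 μM ursolic acid; TR-FRET read-out, 1% DMSO final.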

[3] = ursolic acid present, luciferase readout
[4] = with 2 μM ursolic acid (RORγ antagonist), highest test concentration 10 μM
[5] = luciferase reporter, in presence of ursolic acid
[6] = luciferase reporter, with ursolic acid

SMILES: COC(=O)CCC[C@H]1CN(S(=O)(=O)c2cc(C(F)(F)F)cnc2OCCO)c2cc(/C=C/c3c(F)cccc3Cl)ccc2O1 [Example 195C, methyl (S,E)-4-(6-(2-chloro-6-fluorostyryl)-4-((2-(2-hydroxyethoxy)-5-(trifluoro-methyl)pyridin-3-yl)sulfonyl)-3,4-dihydro-2H-benzo[b][1,4]-oxazin-2-yl)butanoate]
- EC50 [1, 3]: 500 to 5000 nM
- EC50 [2, 4]: < 500 nM

SMILES: COc1cc(S(=O)(=O)N2C[C@H](CNC(=O)c3cccc(C(=O)O)c3)Oc3ccc(/C=C(\C)c4c(F)cccc4Cl)cc32)ccc1F [Example 135A, (S,E)-3-(((6-(2-(2-chloro-6-fluorophenyl)prop-1-en-1-yl)-4-((4-fluoro-3-methoxyphenyl)sulfonyl)-3,4-dihydro-2H-benzo[b][1,4]oxazin-2-yl)methyl)carbamoyl)benzoic acid]
- EC50 [1, 5]: 500 to 5000 nM
- Gal4-RORγ Assay Max Response [1, 5]: * (a value in the range of 30 to 90)
- EC50 ([2]; RORγ-LBD TR-FRET assay): < 500 nM
- TR-FRET Assay Max Response ([2]; RORγ-LBD TR-FRET assay): *** (a value in the range of greater than 150 to 200)

SMILES: COC(=O)CC[C@H]1CN(S(=O)(=O)c2cccc(C(F)(F)F)c2)c2cc(/C=C(\C)c3c(F)cccc3Cl)cc(F)c2O1 [Example 49, (S,E)-Methyl 3-(6-(2-(2-chloro-6-fluorophenyl)prop-1-en-1-yl)-8-fluoro-4-((3-(trifluoromethyl)phenyl)sulfonyl)-3,4-dihydro-2H-benzo[b][1,4]oxazin-2-yl)propanoate]
- EC50 [1, 6]: 500 to 5000 nM
- EC50 ([2]; RORγ-LBD TR-FRET): < 500 nM

SMILES: CCn1cc(S(=O)(=O)N2C[C@H](CNC(C)=O)Oc3ccc(/C=C/c4c(F)cccc4Cl)cc32)c(Cl)n1 [Example 109D, (S,E)-N-((4-((3-chloro-1-ethyl-1H-pyrazol-4-yl)sulfonyl)-6-(2-chloro-6-fluorostyryl)-3,4-dihydro-2H-benzo[b][1,4]oxazin-2-yl)methyl)acetamide]
- EC50 [1, 5]: 500 to 5000 nM
- Gal4-RORγ Assay Max Response [1, 5]: ** (a value in the range of greater than 90 to 150)
- EC50 ([2]; RORγ-LBD TR-FRET assay): < 500 nM
- TR-FRET Assay Max Response ([2]; RORγ-LBD TR-FRET assay): *** (a value in the range of greater than 150 to 200)

SMILES: O=S(=O)(c1cccc(C(F)(F)F)c1)N1CCCc2cc(OCc3c(F)cccc3Cl)ccc21 [Example 25J, 6-((2-chloro-6-fluorobenzyl)oxy)-1-((3-(trifluoromethyl)phenyl)sulfonyl)-1,2,3,4-tetrahydroquinoline]
- EC50 [1, 6]: 500 to 5000 nM
- EC50 ([2]; RORγ-LBD TR-FRET): < 500 nM

SMILES: C/C(=C\c1cc2c(cc1C)O[C@@H](CCC(=O)O)CN2S(=O)(=O)c1cccc(OC(F)F)c1)c1c(F)cccc1Cl [Example 54, (S,E)-3-(6-(2-(2-Chloro-6-fluorophenyl)prop-1-en-1-yl)-4-((3-(difluoromethoxy)phenyl)sulfonyl)-7-methyl-3,4-dihydro-2H-benzo[b][1,4]oxazin-2-yl)propanoic acid]
- EC50 [1, 6]: 500 to 5000 nM
- EC50 ([2]; RORγ-LBD TR-FRET): < 500 nM

SMILES: Cn1nc(/C=C/c2ccc3c(c2)N(S(=O)(=O)c2cccc(C(F)(F)F)c2)C[C@H](CCC(=O)O)O3)c2c(Cl)cccc21 [Example 89BO, (S,E)-3-(6-(2-(4-chloro-1-methyl-1H-indazol-3-yl)vinyl)-4-((3-(trifluoromethyl)phenyl)sulfonyl)-3,4-dihydro-2H-benzo[b][1,4]-oxazin-2-yl)propanoic acid]
- EC50 [1, 6]: 500 to 5000 nM
- EC50 ([2]; RORγ-LBD TR-FRET): < 500 nM

SMILES: COc1cc(S(=O)(=O)N2c3cc(OCc4c(F)cccc4Cl)ccc3C[C@@H](CNC(C)=O)[C@H]2C)ccc1F [Example 152, N-(((2R,3S)-7-((2-Chloro-6-fluorobenzyl)oxy)-1-((4-fluoro-3-methoxyphenyl)sulfonyl)-2-methyl-1,2,3,4-tetrahydroquinolin-3-yl)methyl)acetamide]
- EC50 [1, 5]: < 500 nM
- Gal4-RORγ Assay Max Response [1, 5]: ** (a value in the range of greater than 90 to 150)
- EC50 ([2]; RORγ-LBD TR-FRET assay): < 500 nM
- TR-FRET Assay Max Response ([2]; RORγ-LBD TR-FRET assay): *** (a value in the range of greater than 150 to 200)

SMILES: COC(=O)CC[C@H]1CN(S(=O)(=O)c2cccc(OC(F)F)c2)c2cc(/C=C/c3c(Cl)cccc3Cl)ccc2O1 [Example 89CS, methyl (S,E)-3-(6-(2,6-dichlorostyryl)-4-((3-(difluoromethoxy)phenyl)sulfonyl)-3,4-dihydro-2H-benzo[b][1,4]-oxazin-2-yl)propanoate]
- EC50 [1, 6]: < 500 nM
- EC50 ([2]; RORγ-LBD TR-FRET): < 500 nM

SMILES: Cn1nccc1/C=C/c1ccc2c(c1)N(S(=O)(=O)c1cccc(C(F)(F)F)c1)C[C@H](CCC(=O)O)O2 [Example 89CI, (S,E)-3-(6-(2-(1-methyl-1H-pyrazol-5-yl)vinyl)-4-((3-(trifluoromethyl)phenyl)sulfonyl)-3,4-dihydro-2H-benzo[b][1,4]-oxazin-2-yl)propanoic acid]
- EC50 [1, 6]: > 10000 nM
- EC50 ([2]; RORγ-LBD TR-FRET): > 10000 nM

SMILES: O=C(O)CC[C@H]1CN(S(=O)(=O)c2cccc(C(F)(F)F)c2)c2cc(/C=C/c3cccc(Cl)c3C(F)(F)F)ccc2O1 [Example 89CO, (S,E)-3-(6-(3-chloro-2-(trifluoromethyl)styryl)-4-((3-(trifluoromethyl)phenyl)sulfonyl)-3,4-dihydro-2H-benzo[b][1,4]oxazin-2-yl)propanoic acid]
- EC50 [1, 6]: 500 to 5000 nM
- EC50 ([2]; RORγ-LBD TR-FRET): < 500 nM

SMILES: C/C(=C\c1ccc2c(c1)N(S(=O)(=O)c1cccc(C(F)(F)F)c1)C[C@H]([C@@H](C)O)O2)c1c(F)cccc1Cl [Example 98, (R)-1-((R)-6-((E)-2-(2-Chloro-6-fluorophenyl)prop-1-en-1-yl)-4-((3-(trifluoromethyl)phenyl)sulfonyl)-3,4-dihydro-2H-benzo[b][1,4]oxazin-2-yl)ethan-1-ol]
- EC50 [1, 6]: < 500 nM
- EC50 ([2]; RORγ-LBD TR-FRET): < 500 nM

SMILES: O=C(O)CC[C@H]1CN(S(=O)(=O)c2cccc(C(F)(F)F)c2)c2cc(CC3CCCCC3)ccc2O1 [Example 93, (S)-3-(6-(Cyclohexylmethyl)-4-((3-(trifluoromethyl)phenyl)sulfonyl)-3,4-dihydro-2H-benzo[b][1,4]oxazin-2-yl)propanoic acid]
- EC50 [1, 6]: 500 to 5000 nM
- EC50 ([2]; RORγ-LBD TR-FRET): < 500 nM

SMILES: CCn1cc(S(=O)(=O)N2C[C@H](CCC(=O)O)Oc3ccc(/C=C/c4c(Cl)cccc4C(F)(F)F)cc32)c(OCCO)n1 [Example 89EA, (S,E)-3-(6-(2-chloro-6-(trifluoromethyl)styryl)-4-((1-ethyl-3-(2-hydroxyethoxy)-1H-pyrazol-4-yl)sulfonyl)-3,4-dihydro-2H-benzo[b][1,4]oxazin-2-yl)propanoic acid]
- EC50 [1, 6]: < 500 nM
- EC50 ([2]; RORγ-LBD TR-FRET): < 500 nM

SMILES: O=C(O)CC[C@H]1CN(S(=O)(=O)c2cccc(C(F)(F)F)c2)c2cc(/C=C/c3cccc(F)c3Cl)ccc2O1 [Example 89BP, (S,E)-3-(6-(2-chloro-3-fluorostyryl)-4-((3-(trifluoromethyl)phenyl)sulfonyl)-3,4-dihydro-2H-benzo[b][1,4]oxazin-2-yl)propanoic acid]
- EC50 [1, 6]: > 10000 nM
- EC50 ([2]; RORγ-LBD TR-FRET): < 500 nM

SMILES: O=C(O)CC[C@H]1CN(S(=O)(=O)c2cc(C(F)(F)F)cnc2OCCO)c2cc(/C=C3\CC4CCC3C4)ccc2O1 (stereo partly drawn) [Example 95T, 3-((2S)-6-((E)-bicyclo[2.2.1]heptan-2-ylidenemethyl)-4-((2-(2-hydroxyethoxy)-5-(trifluoromethyl)pyridin-3-yl)sulfonyl)-3,4-dihydro-2H-benzo[b][1,4]oxazin-2-yl)propanoic acid]
- EC50 [1, 6]: 500 to 5000 nM
- EC50 ([2]; RORγ-LBD TR-FRET): < 500 nM

SMILES: CCC(=Cc1ccc2c(c1)N(S(=O)(=O)c1cccc(C(F)(F)F)c1)C[C@H](CCCC(=O)O)O2)CC [Example 195F, (S)-4-(6-(2-ethylbut-1-en-1-yl)-4-((3-(trifluoromethyl)phenyl)-sulfonyl)-3,4-dihydro-2H-benzo[b][1,4]oxazin-2-yl)butanoic acid]
- EC50 [1, 3]: < 500 nM
- EC50 [2, 4]: < 500 nM
